System: HFD-fed mice
Experiment: Liver histopathology, HE staining
Type: in vivo, C57BL/6J mice
Settings: metformin group (200 mg/kg), gavage 5 weeks, FIG. 5
Procedure: 1.4 Experimental method: After adaptive feeding for one week, 35 four-week-old male C57BL/6 mice were randomized into 2 initial groups, fed with a normal chow or a high-fat (60% fat) high-sugar (20% fructose) chow. […] During modeling, the mice were given ad libitum access to food and water at room temperature of 23-25° C. in an animal laboratory. The proper temperature and the 12-hour day-night cycle were maintained. From week 11, the mice in each group were dosed by gavage for 5 weeks, and its weight was measured once a week. 4.1.1 Experimental method: Fresh liver tissue was collected and fixed in 4% neutral formalin buffer for 24 h, and then dehydrated. The tissue blocks were trimmed, processed, and embedded in paraffin. The tissue in glass slides were cut to the thickness of 5 μm and treated with HE staining.

## CN(C)C(=N)N=C(N)N [metformin]
  hepatocyte swelling, steatosis, sparse cytoplasm (HE staining): significantly relieved

From patent publication US20230057861A1, “USE OF CORYDALIS SAXICOLA BUNTING AND FORMULATION THEREOF IN PREPARATION OF DRUG FOR TREATING NON-ALCOHOLIC FATTY LIVER DISEASES” (NANJING ZHONGSHAN PHARMACEUTICAL CO., LTD., priority 2020, published 2023)
